Values after ≈ are worked out from the molar mass of the structure shown.
Legend:
[1] = biological target: DNA gyrase (Escherichia coli) (UniProt P0AES6+P0AES4)
Klebsiella pneumoniae = assay: Antibacterial activity against Klebsiella pneumonia (MGH-2)
Streptococcus pneumoniae = assay: Antibacterial activity against Streptococcus pneumoniae (SV-1)
Escherichia coli [2] = assay: Antibacterial activity against Escherichia coli (H560)
Escherichia coli [3] = assay: Antibacterial activity against Escherichia coli (vogel)
Staphylococcus aureus = assay: Antibacterial activity against Staphylococcus aureus (H228)
Pseudomonas aeruginosa = assay: Antibacterial activity against Pseudomonas aeruginosa (UI-18)

Compound | gyrase cleavage conc [1] | MIC (Klebsiella pneumoniae) | MIC (Streptococcus pneumoniae) | MIC (Escherichia coli [2]) | MIC (Escherichia coli [3]) | MIC (Staphylococcus aureus) | MIC (Pseudomonas aeruginosa)
CCn1cc(C(=O)O)c(=O)c2cc(F)c(NCCN)nc21 | 50 µg/mL | 25 µg/mL (≈ 85 µM) | > 100 µg/mL | 25 µg/mL (≈ 85 µM) | 12.5 µg/mL (≈ 42.5 µM) | > 100 µg/mL | 50 µg/mL (≈ 170 µM)
CCn1cc(C(=O)O)c(=O)c2cc([N+](=O)[O-])ccc21 | > 100 µg/mL | 12.5 µg/mL (≈ 47.7 µM) | 100 µg/mL (≈ 381 µM) | 50 µg/mL (≈ 191 µM) | 12.5 µg/mL (≈ 47.7 µM) | > 100 µg/mL | > 100 µg/mL
CCn1cc(C(=O)O)c(=O)c2cc(F)c(N3CCN(CCN)CC3)nc21 | 6.3 µg/mL | 25 µg/mL (≈ 68.8 µM) | 12.5 µg/mL (≈ 34.4 µM) | 12.5 µg/mL (≈ 34.4 µM) | 12.5 µg/mL (≈ 34.4 µM) | 50 µg/mL (≈ 138 µM) | 50 µg/mL (≈ 138 µM)
CCn1cc(C(=O)O)c(=O)c2cc(F)c(N3CCN(CCN)CC3)cc21 | 10 µg/mL | 50 µg/mL (≈ 138 µM) | 50 µg/mL (≈ 138 µM) | 25 µg/mL (≈ 69 µM) | 25 µg/mL (≈ 69 µM) | 12.5 µg/mL (≈ 34.5 µM) | 50 µg/mL (≈ 138 µM)
CCn1cc(C(=O)O)c(=O)c2c(N)nc(N3CCNCC3)nc21 | 100 µg/mL | 25 µg/mL (≈ 78.5 µM) | 50 µg/mL (≈ 157 µM) | 3.1 µg/mL (≈ 9.74 µM) | 6.3 µg/mL (≈ 19.8 µM) | 50 µg/mL (≈ 157 µM) | 25 µg/mL (≈ 78.5 µM)
CCn1cc(C(=O)O)c(=O)c2ccc(C)nc21 | 50 µg/mL | – | – | – | – | – | –
CCn1cc(C(=O)O)c(=O)c2cc(F)c(N3CCC(N4CCN(C)CC4)CC3)cc21 | 50 µg/mL | 12.5 µg/mL (≈ 30 µM) | 6.3 µg/mL (≈ 15.1 µM) | 12.5 µg/mL (≈ 30 µM) | 3.1 µg/mL (≈ 7.44 µM) | 1.6 µg/mL (≈ 3.84 µM) | 50 µg/mL (≈ 120 µM)
CCn1cc(C(=O)O)c(=O)c2ccc(/C=C/N3CCN(C)CC3)nc21 | > 100 µg/mL | > 100 µg/mL | > 100 µg/mL | > 100 µg/mL | > 100 µg/mL | > 100 µg/mL | > 100 µg/mL
CCn1cc(C(=O)O)c(=O)c2ccc(/C=N/N3CCN(C)CC3)nc21 | 100 µg/mL | 12.5 µg/mL (≈ 36.4 µM) | 100 µg/mL (≈ 291 µM) | 12.5 µg/mL (≈ 36.4 µM) | 12.5 µg/mL (≈ 36.4 µM) | 12.5 µg/mL (≈ 36.4 µM) | > 100 µg/mL
CCn1cc(C(=O)O)c(=O)c2cc(F)c(C)nc21 | 25 µg/mL | 6.3 µg/mL (≈ 25.2 µM) | > 100 µg/mL | 3.1 µg/mL (≈ 12.4 µM) | 3.1 µg/mL (≈ 12.4 µM) | 25 µg/mL (≈ 99.9 µM) | 50 µg/mL (≈ 200 µM)
CCn1cc(C(=O)O)c(=O)c2cc([N+](=O)[O-])c(C)nc21 | 50 µg/mL | 50 µg/mL (≈ 180 µM) | > 100 µg/mL | 50 µg/mL (≈ 180 µM) | 25 µg/mL (≈ 90.2 µM) | 25 µg/mL (≈ 90.2 µM) | > 100 µg/mL
CCn1cc(C(=O)O)c(=O)c2ccc(N3CCN(CC#N)CC3)cc21 | 18 µg/mL | > 100 µg/mL | > 100 µg/mL | 50 µg/mL (≈ 147 µM) | 50 µg/mL (≈ 147 µM) | 25 µg/mL (≈ 73.4 µM) | 100 µg/mL (≈ 294 µM)
CCn1cc(C(=O)O)c(=O)c2cc(F)c(SCCN)cc21 | 5 µg/mL | 1.6 µg/mL (≈ 5.16 µM) | 25 µg/mL (≈ 80.6 µM) | 3.1 µg/mL (≈ 9.99 µM) | 0.8 µg/mL (≈ 2.58 µM) | 25 µg/mL (≈ 80.6 µM) | 3.1 µg/mL (≈ 9.99 µM)
CCn1cc(C(=O)O)c(=O)c2cc(F)c(N3CCSCC3)nc21 | 18 µg/mL | 3.1 µg/mL (≈ 9.19 µM) | 50 µg/mL (≈ 148 µM) | 1.6 µg/mL (≈ 4.74 µM) | 1.6 µg/mL (≈ 4.74 µM) | 0.2 µg/mL (≈ 0.593 µM) | 6.3 µg/mL (≈ 18.7 µM)
CCn1cc(C(=O)O)c(=O)c2ccc(N3CCNCC3)nc21 | 75 µg/mL | 12.5 µg/mL (≈ 41.3 µM) | 50 µg/mL (≈ 165 µM) | 3.1 µg/mL (≈ 10.3 µM) | 6.3 µg/mL (≈ 20.8 µM) | 50 µg/mL (≈ 165 µM) | 12.5 µg/mL (≈ 41.3 µM)
CCn1cc(C(=O)O)c(=O)c2cc(N)c(C)nc21 | > 100 µg/mL | > 100 µg/mL | 50 µg/mL (≈ 202 µM) | 100 µg/mL (≈ 404 µM) | > 100 µg/mL | 50 µg/mL (≈ 202 µM) | > 100 µg/mL

Compound | gyrase cleavage conc [1] | MIC (Klebsiella pneumoniae) | MIC (Streptococcus pneumoniae) | MIC (Escherichia coli [2]) | MIC (Escherichia coli [3]) | MIC (Staphylococcus aureus) | MIC (Pseudomonas aeruginosa)
CCn1cc(C(=O)O)c(=O)c2cc(F)c(N3CCC(C(N)=O)CC3)cc21 | 7.5 µg/mL | 25 µg/mL (≈ 69.2 µM) | 6.3 µg/mL (≈ 17.4 µM) | 25 µg/mL (≈ 69.2 µM) | 6.3 µg/mL (≈ 17.4 µM) | 3.1 µg/mL (≈ 8.58 µM) | 50 µg/mL (≈ 138 µM)
CCn1cc(C(=O)O)c(=O)c2cc(F)c(N3CCC(C(F)(F)F)CC3)cc21 | 5 µg/mL | > 100 µg/mL | 6.3 µg/mL (≈ 16.3 µM) | 6.3 µg/mL (≈ 16.3 µM) | 6.3 µg/mL (≈ 16.3 µM) | 0.1 µg/mL (≈ 0.259 µM) | > 100 µg/mL
CCn1cc(C(=O)O)c(=O)c2cc(F)c(C)cc21 | 25 µg/mL | 0.2 µg/mL (≈ 0.802 µM) | 100 µg/mL (≈ 401 µM) | 0.4 µg/mL (≈ 1.6 µM) | 0.2 µg/mL (≈ 0.802 µM) | 1.6 µg/mL (≈ 6.42 µM) | 12.5 µg/mL (≈ 50.2 µM)
CCn1cc(C(=O)O)c(=O)c2cc(F)c(F)c(F)c21 | 38 µg/mL | 6.3 µg/mL (≈ 23.2 µM) | > 100 µg/mL | 6.3 µg/mL (≈ 23.2 µM) | 1.6 µg/mL (≈ 5.9 µM) | 50 µg/mL (≈ 184 µM) | > 100 µg/mL
CCn1cc(C(=O)O)c(=O)c2cc(F)c(N3CCC(N4CCCC4)CC3)cc21 | 7.5 µg/mL | 1.6 µg/mL (≈ 4.13 µM) | 12.5 µg/mL (≈ 32.3 µM) | 0.1 µg/mL (≈ 0.258 µM) | 0.4 µg/mL (≈ 1.03 µM) | 3.1 µg/mL (≈ 8 µM) | 3.1 µg/mL (≈ 8 µM)
CCn1cc(C(=O)O)c(=O)cc1-c1ccc(OC)cc1 | 100 µg/mL | 50 µg/mL (≈ 183 µM) | > 100 µg/mL | > 100 µg/mL | 50 µg/mL (≈ 183 µM) | > 100 µg/mL | > 100 µg/mL
CCn1cc(C(=O)O)c(=O)c2cc(F)c(N3CCN(CC#N)CC3)cc21 | 10 µg/mL | 0.8 µg/mL (≈ 2.23 µM) | 6.3 µg/mL (≈ 17.6 µM) | 0.8 µg/mL (≈ 2.23 µM) | 0.4 µg/mL (≈ 1.12 µM) | 1.6 µg/mL (≈ 4.46 µM) | 6.3 µg/mL (≈ 17.6 µM)
CCn1cc(C(=O)O)c(=O)c2cc(F)c(Cl)cc21 | 38 µg/mL | 1.6 µg/mL (≈ 5.93 µM) | 100 µg/mL (≈ 371 µM) | 1.6 µg/mL (≈ 5.93 µM) | 0.8 µg/mL (≈ 2.97 µM) | 3.1 µg/mL (≈ 11.5 µM) | 50 µg/mL (≈ 185 µM)
CCn1cc(C(=O)O)c(=O)c2cc(F)c(N3CCN(C)CC3)c(F)c21 | 2.5 µg/mL | 0.4 µg/mL (≈ 1.14 µM) | 3.1 µg/mL (≈ 8.82 µM) | 0.1 µg/mL (≈ 0.285 µM) | 0.2 µg/mL (≈ 0.569 µM) | 0.4 µg/mL (≈ 1.14 µM) | 0.8 µg/mL (≈ 2.28 µM)
CCn1cc(C(=O)O)c(=O)c2c(N)nc(N3CCN(C)CC3)nc21 | 100 µg/mL | 6.3 µg/mL (≈ 19 µM) | 100 µg/mL (≈ 301 µM) | 3.1 µg/mL (≈ 9.33 µM) | 1.6 µg/mL (≈ 4.81 µM) | 100 µg/mL (≈ 301 µM) | 100 µg/mL (≈ 301 µM)
CCn1cc(C(=O)O)c(=O)c2cc(F)c(/C=N/O)nc21 | 50 µg/mL | 12.5 µg/mL (≈ 44.8 µM) | 100 µg/mL (≈ 358 µM) | > 100 µg/mL | 6.3 µg/mL (≈ 22.6 µM) | 100 µg/mL (≈ 358 µM) | 100 µg/mL (≈ 358 µM)
CCn1cc(C(=O)O)c(=O)c2cc(F)c(NC)cc21 | 18 µg/mL | 6.3 µg/mL (≈ 23.8 µM) | 100 µg/mL (≈ 378 µM) | 3.1 µg/mL (≈ 11.7 µM) | 3.1 µg/mL (≈ 11.7 µM) | 12.5 µg/mL (≈ 47.3 µM) | > 100 µg/mL
CCn1cc(C(=O)O)c(=O)c2cc(F)c(N3CCN(C(C)=N)CC3)nc21 | 6.3 µg/mL | 6.3 µg/mL (≈ 17.4 µM) | 50 µg/mL (≈ 138 µM) | 0.8 µg/mL (≈ 2.21 µM) | 3.1 µg/mL (≈ 8.58 µM) | 50 µg/mL (≈ 138 µM) | 25 µg/mL (≈ 69.2 µM)
CC1COc2c(N3CCN(C)CC3)c(F)cc3c(=O)c(C(=O)O)cn1c23 (centres undefined) | 5 µg/mL | – | – | – | – | – | –
CCn1cc(C(=O)O)c(=O)c2cc(F)c(N3CCNCC3)cc21 | 1 µg/mL | – | – | – | – | – | –

Source: ChEMBL document CHEMBL1123417, “New structure-activity relationships of the quinolone antibacterials using the target enzyme. The development and application of a DNA gyrase assay” (J Med Chem, 1986)
